Results reported in EP4707280A1, “1,4-CINEOLE DERIVATIVE AND INTERMEDIATE THEREOF, HERBICIDE CONTAINING SAID DERIVATIVE AS ACTIVE INGREDIENT, METHOD FOR USING HERBICIDE, AND METHOD FOR PREPARING AGROCHEMICAL COMPOSITION” (HOKKO CHEMICAL INDUSTRY CO., LTD., priority 2023, dated 2024).

Columns and labels:
Type in all cases: in vivo
[1] = tested on: Echinochloa crus-galli; experiment: Test Example 7: herbicidal effect test by soil application in upland field (low dose); conditions: Echinochloa crus-galli, 7.5 g per 10 ares, sprayed one day after sowing, 14 days after application, read-out: weed inhibition rate
Method: (§1) The present test was conducted in duplicate for each chemical concentration group, and the weed inhibition rate (%) was determined 14 days after chemical application using the following formula (Math. 1). [formula]
(§2) Pots with an area of 36 cm^2 were filled with upland soil (alluvial loam), twenty seeds each of weeds of Digitaria ciliaris, and Echinochloa crus-galli were uniformly mixed with the top 1 cm layer of soil and the surface was lightly pressed down. One day after sowing, an emulsifiable concentrate prepared according to Formulation Example 5 using the compound shown below was diluted with water, and the diluted solution was sprayed onto the soil surface at a rate of 100 liters per 10 ares. The amount of the active ingredient to be applied was equivalent to 7.5 g per 10 ares. Fourteen days after chemical application, the herbicidal effect was evaluated according to the same criteria as in Test Example 1.

[2] = tested on: Digitaria ciliaris; experiment: as above; conditions: Digitaria ciliaris, 7.5 g per 10 ares, sprayed one day after sowing, 14 days after application, read-out: weed inhibition rate
Method: as §1, §2

[3] = tested on: Echinochloa crus-galli; experiment: Test Example 4: herbicidal effect test by stem and leaf treatment in upland field; conditions: Echinochloa crus-galli; 120 g per 10 ares; sprayed seven days after sowing, upland soil; 14 days after application; read-out: weed inhibition rate
[4] = tested on: Echinochloa crus-galli var. formosensis; experiment: Test Example 1: herbicidal effect test by soil application in paddy rice; conditions: Echinochloa crus-galli, soil, 336 h; 120 g active ingredient per 10 ares; applied immediately after sowing, flooded pots; 14 days after application; read-out: weed inhibition rate
Method in brief: (§3)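 Paddy soil in Wagner pots (1/10,000 acre), fertilized and puddled; 30 seeds per species sown at 0–1 cm, flooded to ~3 cm, greenhouse. Water-diluted emulsifiable concentrate dropped onto flooded pots right after sowing at 120 g active ingredient per 10 ares.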

[5] = tested on: Scirpus juncoides; experiment: as above; conditions: Schoenoplectiella juncoides, soil, 336 h; 120 g active ingredient per 10 ares; applied immediately after sowing, flooded pots; 14 days after application; read-out: weed inhibition rate
Method in brief: as §3

[6] = tested on: Echinochloa crus-galli; experiment: Test Example 8: herbicidal effect test by stem and leaf treatment in upland field (low dose); conditions: Echinochloa crus-galli; 7.5 g per 10 ares; sprayed seven days after sowing, upland soil; 14 days after application; read-out: weed inhibition rate
[7] = tested on: Digitaria ciliaris; experiment: as above; conditions: Digitaria ciliaris; 7.5 g per 10 ares; sprayed seven days after sowing, upland soil; 14 days after application; read-out: weed inhibition rate
[8] = tested on: Echinochloa crus-galli var. formosensis; experiment: Test Example 2: herbicidal effect test by application during growth period of paddy rice; conditions: Echinochloa crus-galli; 120 g per 10 ares; applied seven days after sowing, flooded pots; 14 days after application; read-out: weed inhibition rate
Method in brief: (§4)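 Herbicidal effect was scored 14 days after treatment, in duplicate per concentration. Weeds sown 0–1 cm deep in puddled, fertilized paddy soil under about 3 cm of standing water received a water-diluted emulsifiable concentrate by dropper 7 days post-sowing, at 120 g a.i. per 10 ares.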

[9] = tested on: Scirpus juncoides; experiment: as above; conditions: Schoenoplectiella juncoides; 120 g per 10 ares; applied seven days after sowing, flooded pots; 14 days after application; read-out: weed inhibition rate
Method in brief: as §4

[10] = tested on: Echinochloa crus-galli var. formosensis; experiment: Test Example 6: herbicidal effect test by application during growth period of paddy rice (low dose); conditions: Echinochloa crus-galli; 7.5 g per 10 ares; applied seven days after sowing, flooded pots; 14 days after application; read-out: weed inhibition rate
Method in brief: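 Paddy soil in flooded Wagner pots (about 3 cm water), weeds sown at 0–1 cm, 30 seeds each, grown in a glass greenhouse. Seven days after sowing, water-diluted emulsifiable concentrate was dropped into the water at 7.5 g active ingredient per 10 ares. Weed inhibition rate (%) was scored 14 days after application, in duplicate.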

[11] = tested on: Digitaria ciliaris; experiment: Test Example 4: herbicidal effect test by stem and leaf treatment in upland field; conditions: Digitaria ciliaris; 120 g per 10 ares; sprayed seven days after sowing, upland soil; 14 days after application; read-out: weed inhibition rate
[12] = tested on: Echinochloa crus-galli var. formosensis; experiment: Test Example 5: herbicidal effect test by soil application in paddy rice (low dose); conditions: Echinochloa crus-galli, soil, 336 h; 7.5 g per 10 ares; applied immediately after sowing, flooded pots; 14 days after application; read-out: weed inhibition rate
Method in brief: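 Dose of 7.5 g a.i. per 10 ares, applied by dropper as diluted emulsifiable concentrate to flooded (~3 cm) paddy pots immediately after sowing seeds at 0–1 cm. Kept in a glass greenhouse; duplicate pots rated at 14 days post-application.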

[13] = tested on: Echinochloa crus-galli; experiment: Test Example 3: herbicidal effect test by soil application in upland field; conditions: Echinochloa crus-galli, 120 g per 10 ares, sprayed one day after sowing, 14 days after application, read-out: weed inhibition rate
Method in brief: (§5)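 Pre-emergence test: seeds mixed into top 1 cm of alluvial loam upland soil in pots; emulsifiable concentrate diluted in water sprayed on soil one day after sowing at 100 L/10 a, 120 g a.i./10 a. Weed inhibition rate (%) scored at 14 days, in duplicate.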

[14] = tested on: Digitaria ciliaris; experiment: as above; conditions: Digitaria ciliaris, 120 g per 10 ares, sprayed one day after sowing, 14 days after application, read-out: weed inhibition rate
Method in brief: as §5

CC(C)[C@]12C[C@@H](OCc3c(Cl)cccc3Cl)[C@](C)(C[C@@H]1Cl)O2 [1-652, (1R,2S,4S,5R)-2-chloro-5-[(2,6-dichlorophenyl)methoxy]-1-isopropyl-4-methyl-7-oxabicyclo[2.2.1]heptane]
≥ 80%: inhibition at 75 g/ha [1] | inhibition at 75 g/ha [2] | inhibition at 1200 g/ha [3] | pest or weed control at 1200 g/ha [4] | pest or weed control at 1200 g/ha [5] | inhibition at 75 g/ha [6] | inhibition at 75 g/ha [7] | inhibition at 1200 g/ha [8] | inhibition at 1200 g/ha [9] | inhibition at 75 g/ha [10] | inhibition at 1200 g/ha [11] | inhibition at 75 g/ha [12] | inhibition at 1200 g/ha [13] | inhibition at 1200 g/ha [14]

CC(C)[C@]12C[C@@H](OCc3ccccc3Br)[C@](C)(C[C@@H]1I)O2 [1-759, (1R,2S,4S,5R)-5-[(2-bromophenyl)methoxy]-2-iodo-1-isopropyl-4-methyl-7-oxabicyclo[2.2.1]heptane]
≥ 80%: inhibition at 75 g/ha [1] | inhibition at 75 g/ha [2] | inhibition at 1200 g/ha [3] | pest or weed control at 1200 g/ha [4] | pest or weed control at 1200 g/ha [5] | inhibition at 75 g/ha [6] | inhibition at 75 g/ha [7] | inhibition at 1200 g/ha [8] | inhibition at 1200 g/ha [9] | inhibition at 75 g/ha [10] | inhibition at 1200 g/ha [11] | inhibition at 75 g/ha [12] | inhibition at 1200 g/ha [13] | inhibition at 1200 g/ha [14]

CC(C)C12CC(OCc3c(F)cccc3F)C(C)(CC1I)O2 (stereo not shown) [1-1446, 5-[(2,6-difluorophenyl)methoxy]-2-iodo-1-isopropyl-4-methyl-7-oxabicyclo[2.2.1]heptane]
≥ 80%: inhibition at 75 g/ha [1] | inhibition at 75 g/ha [2] | inhibition at 1200 g/ha [3] | pest or weed control at 1200 g/ha [4] | pest or weed control at 1200 g/ha [5] | inhibition at 75 g/ha [6] | inhibition at 75 g/ha [7] | inhibition at 1200 g/ha [8] | inhibition at 1200 g/ha [9] | inhibition at 75 g/ha [10] | inhibition at 1200 g/ha [11] | inhibition at 75 g/ha [12] | inhibition at 1200 g/ha [13] | inhibition at 1200 g/ha [14]

CO[C@H]1C[C@]2(C)O[C@@]1(C(C)C)CC2OCC=C(C)C (mixture of isomers) [1-799, (1R,2S,4S,SR)-1-isopropyl-2-methoxy-4-methyl-5-(3-methylbut-2-enoxy)-7-oxabicyclo[2.2.1]heptane]
≥ 80%: inhibition at 75 g/ha [1] | inhibition at 75 g/ha [2] | inhibition at 1200 g/ha [3] | pest or weed control at 1200 g/ha [4] | pest or weed control at 1200 g/ha [5] | inhibition at 75 g/ha [6] | inhibition at 75 g/ha [7] | inhibition at 1200 g/ha [8] | inhibition at 1200 g/ha [9] | inhibition at 75 g/ha [10] | inhibition at 1200 g/ha [11] | inhibition at 75 g/ha [12] | inhibition at 1200 g/ha [13] | inhibition at 1200 g/ha [14]

CC(C)C12CC(OCc3c(F)cccc3Br)C(C)(CC1I)O2 (stereo not shown) [1-1612, 5-[(2-bromo-6-fluoro-phenyl)methoxy]-2-iodo-1-isopropyl-4-methyl-7-oxabicyclo[2.2.1]heptane]
≥ 80%: inhibition at 75 g/ha [1] | inhibition at 75 g/ha [2] | inhibition at 1200 g/ha [3] | pest or weed control at 1200 g/ha [4] | pest or weed control at 1200 g/ha [5] | inhibition at 75 g/ha [6] | inhibition at 75 g/ha [7] | inhibition at 1200 g/ha [8] | inhibition at 1200 g/ha [9] | inhibition at 75 g/ha [10] | inhibition at 1200 g/ha [11] | inhibition at 75 g/ha [12] | inhibition at 1200 g/ha [13] | inhibition at 1200 g/ha [14]
